Experimental data published in patent US20060241172A1, “Benzodioxane and benzodioxolane derivatives and uses thereof” (Wyeth, priority 2005, published 2006).
Counter-ions that a name gives are not always drawn. Like-named read-outs stand apart in the source and are kept apart here.

Tests used:
[1] = biological target: T1, human 5-HT2C receptor (Homo sapiens, UniProt P28335); test: 5-HT2C receptor-stimulated calcium mobilization (FLIPR) in CHO cells; format: cell-based; details: for Emax: CHO, read-out: 5-HT2C Function EMax (%); for EC50: read-out: 5-HT2C Function EC50
T1 sequence (P28335 33-458): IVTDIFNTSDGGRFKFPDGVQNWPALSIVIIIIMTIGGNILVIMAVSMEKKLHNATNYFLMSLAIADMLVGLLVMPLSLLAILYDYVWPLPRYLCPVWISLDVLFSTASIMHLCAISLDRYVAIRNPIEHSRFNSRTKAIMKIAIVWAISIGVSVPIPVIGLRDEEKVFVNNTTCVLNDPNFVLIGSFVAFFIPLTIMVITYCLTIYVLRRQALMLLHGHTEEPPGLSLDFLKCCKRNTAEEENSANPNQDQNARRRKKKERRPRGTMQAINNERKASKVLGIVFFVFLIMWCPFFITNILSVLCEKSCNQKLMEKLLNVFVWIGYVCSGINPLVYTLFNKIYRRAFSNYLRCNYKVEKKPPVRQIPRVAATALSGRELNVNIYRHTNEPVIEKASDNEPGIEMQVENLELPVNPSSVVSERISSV

[2] = biological target: T2, human 5-hydroxytryptamine-2C (h5-HT2C) receptor (Homo sapiens, UniProt P28335); test: 5-HT2C binding: [125I]DOI displacement in membranes of transfected CHO cells
T2 construct: expressed in transfected cells; host or cells: CHO (Chinese Hamster Ovary) cells; membranes
T2 sequence (P28335 33-458): T1 sequence (P28335 33-458)

[3] = read-out: 5-HT2C Binding Ki avg

Row | SMILES | Emax [1] [%] | EC50 [1] [nM] | Ki [2, 3] [nM] | further results
1 | NCC1COc2cccc(-c3cc(Cl)ccc3Cl)c2O1 (stereo not drawn) [Compound I-8, {[8-(2,5-Dichlorophenyl)-2,3-dihydro-1,4-benzodioxin-2-yl]methyl}amine] | 60 | < 100 | < 50 | –
2 | COc1ccccc1-c1cc(F)cc2c1OC(CN)O2 (stereo not drawn) [Compound I-76, 1-[6-Fluoro-4-(2-methoxyphenyl)-1,3-benzodioxol-2-yl]methanamine] | 70 | < 100 | < 50 | –
3 | C[C@]1(CN)COc2cccc(-c3ccc(Cl)cc3)c2O1 [Compound I-51, {[(2S)-8-(4-Chlorophenyl)-2-methyl-2,3-dihydro-1,4-benzodioxin-2-yl]methyl}amine] | – | – | > 200 | –
4 | NC[C@H]1COc2cc(Cl)cc(-c3ccc(Cl)cc3Cl)c2O1 [Compound I-64, (2S)-[6-Chloro-8-(2,4-dichloro-phenyl)-2,3-dihydro-benzo[1,4]dioxin-2-yl]-methyl amine] | 60 | 100 to 500 | < 50 | –
5 | COc1ccc(Cl)cc1-c1cc(Cl)cc2c1O[C@@H](CN)CO2 [Compound I-68, (2S)-[6-Chloro-8-(5-chloro-2-methoxy-phenyl)-2,3-dihydro-benzo[1,4]dioxin-2-yl]-methylamine] | – | – | 50 to 200 | –
6 | Clc1ccccc1-c1cccc2c1OC(CNC1CC1)CO2 (stereo not drawn) [Compound I-43, N-{[8-(2-Chlorophenyl)-2,3-dihydro-1,4-benzodioxin-2yl]methyl}cyclopropanamine] | 30 | > 500 | > 200 | –
7 | C=CCNCC1COc2cccc(-c3ccc(Cl)cc3Cl)c2O1 (stereo not drawn) [Compound I-40, N-{[8-(2,4-Dichlorophenyl)-2,3-dihydro-1,4-benzodioxin-2-yl]methyl}prop-2-en-1-amine] | 30 | > 500 | > 200 | –
8 | NC[C@H]1COc2ccc(Cl)c(-c3ccccc3Cl)c2O1 [Compound I-70, (2S)-[7-Chloro-8-(2-chloro-phenyl)-2,3-dihydro-benzo[1,4]dioxin-2-yl]-methylamine] | 50 | < 100 | < 50 | –
9 | C[C@]1(CN)COc2cccc(-c3ccccc3)c2O1 [Compound I-48, {[(2S)-2-Methyl-8-phenyl-2,3-dihydro-1,4-benzodioxin-2-yl]methyl}amine] | – | – | > 200 | –
10 | Cc1ccccc1-c1cc(Cl)cc2c1O[C@@H](CN)CO2 [Compound I-60, (2S)-[6-Chloro-8-(2-methyl-phenyl)-2,3-dihydro-benzo[1,4]dioxin-2-yl]-methylamine] | 50 | 100 to 500 | < 50 | –
11 | Clc1ccc(-c2cccc3c2OC(CNC2CCC2)CO3)c(Cl)c1 (stereo not drawn) [Compound I-45, N-{[8-(2,4-Dichlorophenyl)-2,3-dihydro-1,4-benzodioxin-2-yl]methyl}cyclobutanamine] | 30 | > 500 | > 200 | –
12 | NCC1COc2cccc(-c3cc(F)ccc3F)c2O1 (stereo not drawn) [Compound I-15, {[8-(2,5-Difluorophenyl)-2,3-dihydro-1,4-benzodioxin-2-yl]methyl}amine] | 60 | < 100 | < 50 | –
13 | Clc1ccc(-c2cccc3c2OC(CNC2CC2)CO3)c(Cl)c1 (stereo not drawn) [Compound I-44, N-{[8-(2,4-Dichlorophenyl)-2,3-dihydro-1,4-benzodioxin-2-yl]methyl}cyclopropanamine] | – | > 500 | 50 to 200 | –
14 | COc1ccccc1-c1cccc2c1O[C@@](C)(CN)CO2 [Compound I-52, {[(2S)-8-(2-Methoxyphenyl)-2-methyl-2,3-dihydro-1,4-benzodioxin-2-yl]methyl}amine] | – | – | > 200 | –
15 | CSc1ccc2c(c1)C(N1CCN(C)CC1)Cc1ccccc1S2 (stereo not drawn) [Methiothepin, reference compound] | – | – | – | Ki ([2]; reference compounds, 95% confidence interval in the next column, read-out: Ki): 4.6 nM
16 | C[C@]1(CN)COc2cccc(-c3ccsc3)c2O1 [Compound I-53, {[(2S)-2-Methyl-8-thien-3-yl-2,3-dihydro-1,4-benzodioxin-2-yl]methyl}amine] | – | – | > 200 | –
17 | NC[C@H]1COc2cccc(-c3ccccc3Cl)c2O1 [Compound I-56, 1-[(2S)-8-(2-CHLOROPHENYL)-2,3-DIHYDRO-1,4-BENZODIOXIN-2-YL]METHANAMINE] | – | – | < 50 | –
18 | Cc1cc(Cl)ccc1-c1cc(Cl)cc2c1O[C@@H](CN)CO2 [Compound I-65, (2S)-[6-Chloro-8-(4-chloro-2-methyl-phenyl)-2,3-dihydro-benzo[1,4]dioxin-2-yl]-methylamine] | – | – | < 50 | –
19 | Cc1ccccc1-c1c(Cl)ccc2c1O[C@@H](CN)CO2 [Compound I-72, ((2S)-7-Chloro-8-o-tolyl-2,3-dihydrobenzo[b][1,4]dioxin-2-yl)methanamine] | – | – | < 50 | –
20 | C[C@]1(CN)COc2cccc(-c3cccc(Cl)c3)c2O1 [Compound I-50, {[(2S)-8-(3-Chlorophenyl)-2-methyl-2,3-dihydro-1,4-benzodioxin-2-yl]methyl}amine] | – | – | > 200 | –
21 | NC[C@H]1Oc2cc(F)cc(-c3c(Cl)cccc3Cl)c2O1 (as salt: hydrochloride) [Compound I-85, 1-[(2S)-4-(2,6-dichlorophenyl)-6-fluoro-1,3-benzodioxol-2-yl]methanamine] | – | – | – | melting point: 224 to 225 °C
22 | CNCC1COc2cccc(-c3cccc(F)c3F)c2O1 (stereo not drawn) (as salt: fumarate) [Compound I-27, {[8-(2,3-Difluorophenyl)-2,3-dihydro-1,4-benzodioxin-2-yl]methyl}methylamine] | – | – | – | melting point: 181 to 182 °C
23 | Cc1ccccc1-c1cc(Cl)cc2c1O[C@@H](CN)CO2 (as salt: hydrochloride) [Compound I-60, (2S)-[6-Chloro-8-(2-methyl-phenyl)-2,3-dihydro-benzo[1,4]dioxin-2-yl]-methylamine] | – | – | – | melting point: > 245 °C

Further lines, with some results ahead:

Row | Emax [1] [%] | EC50 [1] [nM] | Ki [2, 3] [nM] | SMILES | further results
24 | 80 | < 100 | < 50 | NCC1Oc2cc(Cl)cc(-c3cc(Cl)ccc3Cl)c2O1 (stereo not drawn) [Compound I-98, [6-Chloro-4-(2,5-dichloro-phenyl)-benzo[1,3]dioxol-2-yl]-methylamine] | –
25 | 80 | > 500 | < 50 | NC[C@@H]1Oc2cc(F)cc(-c3c(Cl)cccc3Cl)c2O1 [Compound I-86, 1-[(2R)-4-(2,6-dichlorophenyl)-6-fluoro-1,3-benzodioxol-2-yl]methanamine] | –
26 | 80 | < 100 | < 50 | NCC1Oc2cc(F)cc(-c3ccccc3Cl)c2O1 (stereo not drawn) [Compound I-84, 1-[4-(2-Chloro-phenyl)-6-fluoro-1,3-benzodioxol-2-yl]methanamine] | –
27 | – | – | 50 to 200 | CCNCC1Oc2cc(F)cc(-c3ccccc3Cl)c2O1 (stereo not drawn) [Compound I-88, N-{[4-(2-Chlorophenyl)-6-fluoro-1,3-benzodioxol-2-yl]methyl}ethanamine] | –
28 | – | – | > 200 | COc1ccc(Cl)cc1-c1cc(Cl)cc2c1OC(CN)O2 (stereo not drawn) [Compound I-94, [6-Chloro-4-(2-methoxy-5-chloro-phenyl)-benzo[1,3]dioxol-2-yl]-methylamine] | –
29 | 70 | < 100 | < 50 | NCC1Oc2cc(F)cc(-c3ccccc3F)c2O1 (stereo not drawn) [Compound I-83, 1-[4-(2-Fluoro-phenyl)-6-fluoro-1,3-benzodioxol-2-yl]methanamine] | –
30 | – | – | 50 to 200 | CN(C)CC1Oc2cc(F)cc(-c3ccccc3Cl)c2O1 (stereo not drawn) [Compound I-89, 1-[4-(2-chlorophenyl)-6-fluoro-1,3-benzodioxol-2-yl]-N,N-dimethylmethanamine] | –
31 | – | – | 50 to 200 | NCC1Oc2cc(F)cc(-c3cccc(Cl)c3)c2O1 (stereo not drawn) [Compound I-78, 1-[4-(3-Chlorophenyl)-6-fluoro-1,3-benzodioxol-2-yl]methanamine] | –
32 | – | – | 50 to 200 | COc1cccc(-c2cc(Cl)cc3c2OC(CN)O3)c1OC (stereo not drawn) [Compound I-95, [6-Chloro-4-(2,3-dimethoxy-phenyl)-benzo[1,3]dioxol-2-yl]-methylamine] | –
33 | – | – | 50 to 200 | NCC1Oc2cc(F)cc(-c3ccc(Cl)cc3)c2O1 (stereo not drawn) [Compound I-79, 1-[4-(4-Chloro-phenyl)-6-fluoro-1,3-benzodioxol-2-yl]methanamine] | –
34 | – | – | 50 to 200 | Cc1cc(Cl)ccc1-c1cc(Cl)cc2c1OC(CN)O2 (stereo not drawn) [Compound I-97, [6-Chloro-4-(4-chloro-2-methyl-phenyl)-benzo[1,3]dioxol-2-yl]-methylamine] | –
35 | – | – | 50 to 200 | NCC1Oc2cc(F)cc(-c3ccccc3)c2O1 (stereo not drawn) [Compound I-77, 1-(6-Fluoro-4-phenyl-1,3-benzodioxol-2-yl)methanamine] | –
36 | – | – | > 200 | COc1ccc(OC)c(-c2cc(Cl)cc3c2OC(CN)O3)c1 (stereo not drawn) [Compound I-100, [6-Chloro-4-(2,5-dimethoxy-phenyl)-benzo[1,3]dioxol-2-yl]-methylamine] | –
37 | – | – | 50 to 200 | NCC1Oc2cc(Cl)cc(-c3ccccc3F)c2O1 (stereo not drawn) [Compound I-93, [6-Chloro-4-(2-fluoro-phenyl)-benzo[1,3]dioxol-2-yl]-methylamine] | –
38 | – | – | 50 to 200 | COc1ccccc1-c1cc(Cl)cc2c1OC(CN)O2 (stereo not drawn) [Compound I-92, [6-Chloro-4-(2-methoxy-phenyl)-benzo[1,3]dioxol-2-yl]-methylamine] | –
39 | – | – | 50 to 200 | NCC1Oc2cc(Cl)cc(-c3cc(F)ccc3F)c2O1 (stereo not drawn) [Compound I-99, [6-Chloro-4-(2,5-difluoro-phenyl)-benzo[1,3]dioxol-2-yl]-methylamine] | –
